Experimental data as given in ChEMBL document CHEMBL1126403, “Azaheteroaromatic ethers as carbonyl bioisosteres. Synthesis and evaluation of a novel class of 5-HT3 receptor antagonists” (Bioorg Med Chem Lett, 1992).

Assays:
[1] = test system: Rattus norvegicus; assay: Compound was evaluated in vivo for its potency to antagonise serotonin 5-HT-inducedbradycardia in the anesthetized rat; type: functional
[2] = molecular target: T1, Serotonin 3 (5-HT3) receptor (Rattus norvegicus, UniProt P35563+Q9JJ16); assay: Binding affinity was evaluated in vitro by displacement of [3H]zacopride radioligand from 5-hydroxytryptamine 3 receptor; type: protein-complex assay
T1 sequence (P35563 whole entry): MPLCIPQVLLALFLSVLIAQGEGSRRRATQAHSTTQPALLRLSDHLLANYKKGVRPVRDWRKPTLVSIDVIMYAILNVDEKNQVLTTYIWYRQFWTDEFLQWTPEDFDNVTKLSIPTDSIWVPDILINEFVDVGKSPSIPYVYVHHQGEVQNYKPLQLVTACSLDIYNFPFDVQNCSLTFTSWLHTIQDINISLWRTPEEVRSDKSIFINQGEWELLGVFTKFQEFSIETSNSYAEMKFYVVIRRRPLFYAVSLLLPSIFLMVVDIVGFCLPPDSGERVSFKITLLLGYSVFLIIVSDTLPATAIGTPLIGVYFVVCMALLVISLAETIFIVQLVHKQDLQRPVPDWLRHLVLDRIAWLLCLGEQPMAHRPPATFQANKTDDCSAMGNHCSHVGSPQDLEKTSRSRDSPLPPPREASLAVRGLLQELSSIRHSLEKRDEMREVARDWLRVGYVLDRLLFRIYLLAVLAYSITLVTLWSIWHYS
T1 sequence (Q9JJ16 whole entry): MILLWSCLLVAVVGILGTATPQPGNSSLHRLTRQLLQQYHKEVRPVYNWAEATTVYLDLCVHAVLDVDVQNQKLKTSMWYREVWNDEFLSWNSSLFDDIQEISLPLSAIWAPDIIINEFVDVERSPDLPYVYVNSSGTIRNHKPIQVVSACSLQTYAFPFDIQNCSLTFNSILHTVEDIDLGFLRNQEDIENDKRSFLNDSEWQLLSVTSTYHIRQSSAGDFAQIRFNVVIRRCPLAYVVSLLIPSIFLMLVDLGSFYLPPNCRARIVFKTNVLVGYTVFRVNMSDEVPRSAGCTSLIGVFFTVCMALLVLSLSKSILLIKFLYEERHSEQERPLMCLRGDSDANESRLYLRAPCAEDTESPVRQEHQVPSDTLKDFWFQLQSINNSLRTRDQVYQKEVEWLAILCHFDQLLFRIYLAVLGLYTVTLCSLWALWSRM

SMILES | Dose [1] [mg/kg] | IC50 [2] [nM]
c1ccc2nc(OC3CN4CCC3CC4)ccc2c1 (stereo not drawn) | 3 | 48
CN1C2CCC1CC(Oc1nc3ccccc3s1)C2 (stereo not drawn) | 0.1 | 6.9
CN1C2CCC1CC(Oc1ccc3ccccc3n1)C2 (stereo not drawn) | 10 | 39.6
CN1[C@@H]2CC[C@H]1C[C@@H](OC(=O)c1cc(Cl)cc(Cl)c1)C2 [BEMESETRON] | 0.1 | 42.6
Cc1nccn1CC1CCc2c(c3ccccc3n2C)C1=O (stereo not drawn) [ONDANSETRON] | 0.01 | 
CN1[C@@H]2CC[C@H]1C[C@@H](OC(=O)c1c[nH]c3ccccc13)C2 [TROPISETRON] | 0.01 | 2.3
COc1cc(N)c(Cl)cc1C(=O)NC1CN2CCC1CC2 (stereo not drawn) [ZACOPRIDE] | 0.01 | 2.2
